Test results as given in patent publication US5428038A, “Benzopyranones, a method for producing them and uses therefor” (Dr. Willmar Schwabe GmbH & Co., priority 1991, dated 1995).
Like-named read-outs stand apart in the source and are kept apart here.

Legend:
[1] = tested on: ovalbumin-induced anaphylactic paw edema; assay: Passive rat paw anaphylaxy (inhibition of edema volume; antiallergic and anti-inflammatory); assay type: in vivo, male Sprague-Dawley rats; conditions: Rattus norvegicus, po; 25 mg/kg p.o. 1 h before test; read-out: Protective action (percentage inhibition of edema volume)
Method: The determination of the antiallergic and anti-inflammatory properties of the compounds in accordance with the invention was using a passive rat paw anaphylaxy model.
Male Sprague-Dawley rats were utilized for all tests. The animals were kept under standardized environmental conditions with free access to food and water. For sensitization to the antigen 100 μl of a mouse antiserum to ovalbumin was injected sublplantarly into the left rear paw. […] The opposite paw was for control injected subplantarly only with 100 μl of the solvent (sterile physiological NaCl solution). Overnight the investigated animals were deprived of food but had water ad lib.
Per group in all tests between 6 and 8 animals were used. One hour later the anaphylactic reaction was caused by the intravenous injection of 10 mg/10 ml/kg ovalbumin in physiological NaCl solution. […] The edema volume was calculated from the difference between the values of the two paws. The antiallergic action is in this case expressed as a percentage inhibition of the edema volume of the animals in the test group as compared with control groups undergoing parallel investigation. […] The determination of the ED50 values was performed by linear regression after log transformation of the administered doses, at least three dosage rates being employed.

[2] = tested on: NMDA-induced tonic convulsions; assay: NMDA test (40 mg/kg i.v.), protection against tonic convulsions (antiepileptic efficacy); assay type: in vivo, male NMRI mice; conditions: Mus musculus, po; for responders at 25 mg/kg: 25 mg/kg p.o. 1 h before test; for responders at 20 mg/kg: 20 mg/kg p.o. 1 h before test
Method: (§1) In order to determine the neuroprotective and anticonvulsive activity of the compounds in accordance with the invention of the general formula I, two slightly different methods were employed as follows: […]
(§2) 1. In order to determine the neuroprotective efficacy NMDA at a rate of 25 mg/kg/10 ml was administered intravenously to male NMRI mice with a body weight of 20 to 25 g. As a consequence of this application the animals suffer clonic and partly tonic convulsions, which lead to death. As a criterion for the efficacy of the investigated compounds prevention of death is used.
2. In order to ascertain the antiepileptic efficacy the same method was utilized with an NMDA dosage of 40 mg/kg/10 ml i.v. This higher NMDA dosage led in the case of all animals to the occurrence of tonic convulsions.
(§3) All animals used in the investigations had free access to food and water prior to the experiments. The test and reference substances were all administered as a suspension in 0.2% agar or water, partly by the intermediary of solution promoters such as for instance PEG-400, perorally using an esophageal probe. Control animals received the same volumes of the solvent with optional solution promoters. One hour after the application of the substance NMDA was administered intravenously and the animals observed for the occurrence of convulsions.
In table 2 the results of the tests (NMDA 40 mg i.v.) performed in accordance with method 2 are compiled with dosages of 5-25 mg of the compounds in accordance with the invention per kg of body weight in comparison with known anticonvulsants and antiepileptics. As a percentage efficacy the percentage of animals is used which in the test were protected against the occurrence of tonic convulsions.
(§4) The determination of the ED50 values was performed in accordance with the method described in Lichtfield and Wilcoxon, J. Pharmacol. exp. Therapeut. 96, 99 (1949) in each case with 4 to 5 groups of 10 animals per dosage rate.

NMDA-induced death = assay: NMDA test (25 mg/kg i.v.), prevention of NMDA-induced death (neuroprotective efficacy); assay type: in vivo, male NMRI mice; conditions: Mus musculus, po, NMDA 25 mg/kg i.v.; for ED50: 1 h, dose protecting 50% of animals against NMDA-induced death one hour after application; for responders at 25 mg/kg: 25 mg/kg p.o. 1 h before test; for responders at 50 mg/kg: 50 mg/kg p.o. 1 h before test; for responders at 20 mg/kg: 20 mg/kg p.o. 1 h before test
Method: as §1, §2, §3
In table 1 the results of the tests (NMDA 25 mg i.v.) performed in accordance with method 1 are compiled with dosages of 5-100 mg of the compounds in accordance with the invention per kg of body weight as compared with known NMDA-antagonists. As a percentage efficacy the percentage of surviving animals is used.
as §4

[3] = NMDA 40 mg/kg i.v., read-out: Protective action (percentage of animals protected against tonic convulsions)
[4] = read-out: Protective action (percentage of surviving animals)
[5] = 5 mg/kg p.o. 1 h before test, NMDA 40 mg/kg i.v., read-out: Protective action (percentage of animals protected against tonic convulsions)
[6] = 1 h, dose protecting 50% of animals against tonic convulsions one hour after application, NMDA 40 mg/kg i.v., read-out: ED50
[7] = 50 mg/kg p.o. 1 h before test, NMDA 40 mg/kg i.v., read-out: Protective action (percentage of animals protected against tonic convulsions)
[8] = 1 h, read-out: Protective action (percentage of animals protected against tonic convulsions)

| SMILES | inhibition in vivo at 25 mg/kg [1] [%] | ED50 (NMDA-induced death) [mg/kg] | responders at 25 mg/kg (NMDA-induced death; [4]) [%] | other results |
| --- | --- | --- | --- | --- |
| COc1cc2oc(=O)ccc2cc1OCC(O)CN1CCN(c2ccccc2)CC1 (racemic) [Example 18, (±)-7-methoxy-6-[2-hydroxy-3-(4-phenyl-1-piperazinyl)propoxy]-2H-1-benzopyran-2-one] | 56 | 6.4 | 100 | responders at 25 mg/kg [2, 3]: 100% |
| COc1cc2oc(=O)ccc2cc1OCC(O)CN1CCN(c2cccc(Cl)c2)CC1 (racemic) [Example 19, (±)-6-{3-[4-(3-chlorophenyl)-1-piperazinyl]-2-hydroxypropoxy}-7-methoxy-2H-1-benzopyran-2-one] | 32 | 8.3 | 100 | responders at 25 mg/kg [2, 3]: 87.5% |
| COc1cc2ccc(=O)oc2cc1OCC(O)CN1CCC(c2ccccc2)CC1 (racemic) [Example 23, (±)-7-[2-hydroxy-3-(4-phenyl-1-piperidinyl)-propoxy]-6-methoxy-2H-1-benzopyran-2-one] |  | 28.5 |  | responders at 5 mg/kg [2, 5]: 12.5%; responders at 100 mg/kg (NMDA-induced death; 100 mg/kg p.o. 1 h before test, read-out: Protective action (percentage of surviving animals)): 100% |
| CCOc1cc2ccc(=O)oc2cc1OCCCN1CCN(c2ccccc2)CC1 [Example 4, 6-ethoxy-7-[3-(4-phenyl-1-piperazinyl)propoxy]-2H-1-benzopyran-2-one] | 79 | 1.7 | 100 | responders at 5 mg/kg [2, 5]: 62.5% |
| COc1cc2oc(=O)ccc2cc1OCCCN1CCN(c2cccc(C(F)(F)F)c2)CC1 [Example 6, 7-methoxy-6-{3-[4-(3-trifluoromethylphenyl)-1-piperazinyl]propoxy}-2H-1-benzopyran-2-one] |  | 13.5 | 87.5 | responders at 25 mg/kg [2, 3]: 0% |
| COc1cc2ccc(=O)oc2cc1OCCCN1CCC(c2ccccc2)CC1 [Example 10, 6-methoxy-7-[3-(4-phenyl-1-piperidinyl)propoxy]-2H-1-benzopyran-2-one] | 22 | 23 | 75 | responders at 5 mg/kg [2, 5]: 25% |
| COc1cc2oc(=O)c3c(c2cc1OCCCN1CCN(c2ccccc2)CC1)CCCC3 [Example 42, 7,8,9,10-tetrahydro-3-methoxy-2-[3-(4-phenyl-1-piperazinyl)propoxy]-6H-dibenzo[b,d]pyran-6-one] | 39 |  | 100 |  |
| COc1cc2oc(=O)c3c(c2cc1OCCCN1CCC(c2ccccc2)CC1)CCCC3 [Example 43, 7,8,9,10-tetrahydro-3-methoxy-2-[3-(4-phenyl-1-piperidinyl)propoxy]-6H-dibenzo[b,d]pyran-6-one] | 19 | 5.5 | 100 | responders at 5 mg/kg [2, 5]: 37.5% |
| COc1cc2oc(=O)c3c(c2cc1OCCCN1CCN(c2ccccc2)CC1)CCC3 [Example 45, 2,3-dihydro-7-methoxy-8-[3-(4-phenyl-1-piperazinyl)propoxy]cyclopenta[c][1]benzopyran-4(1H)-one] | 69 | 1.2 | 100 |  |
| COc1cc2oc(=O)c3c(c2cc1OCCCCN1CCN(c2ccccc2)CC1)CCC3 [Example 46, 2,3-dihydro-7-methoxy-8-[4-(4-phenyl-1-piperazinyl)butyloxy]cyclopenta[c][1]benzopyran-4(1H)-one] | 35 | 3.9 | 100 |  |
| COc1cc2oc(=O)c3c(c2cc1OCCN1CCC(c2ccccc2)CC1)CCC3 [Example 48, 2,3-dihydro-7-methoxy-8-[2-(4-phenyl-1-piperidinyl)ethoxy]cyclopenta[c][1]benzopyran-4(1H)-one] | 35 | 4 |  | responders at 5 mg/kg (NMDA-induced death; 5 mg/kg p.o. 1 h before test, read-out: Protective action (percentage of surviving animals)): 100% |
| COc1cc2oc(=O)c3c(c2cc1OCCCN1CCC(c2ccccc2)CC1)CCC3 [Example 49, 2,3-dihydro-7-methoxy-8-[3-(4-phenyl-1-piperidinyl)propoxy]cyclopenta[c][1]benzopyran-4(1H)-one] | 47 | 6.8 | 75 | ED50 [2, 6]: 4 mg/kg; responders at 20 mg/kg [2, 3]: 87.5% |
| COc1cc2oc(=O)c3c(c2cc1OCCCN1CCN(c2ccc(F)cc2)CC1)CCC3 [Example 52, 8-{3-[4-(4-fluorophenyl)-1-piperazinyl]propoxy}-2,3-dihydro-7-methoxy-cyclopenta[c][1]benzopyran-4(1H)-one] | 74 | 1.2 | 100 |  |
| NC(=O)N1c2ccccc2C=Cc2ccccc21 [carbamazepin] |  |  |  | responders at 50 mg/kg [2, 7]: 75% |
| COc1ccc2c(c1)[C@]13CCCC[C@@H]1[C@H](C2)N(C)CC3 [dextromethorphan, reference compound] |  | 66.7 |  | ED50 ([2]; 1 h): 58 mg/kg; responders at 100 mg/kg [2, 8]: 100%; responders at 50 mg/kg (NMDA-induced death; [4]): 50% |
| CN1C(=O)CN=C(c2ccccc2)c2cc(Cl)ccc21 [diazepam] |  |  |  | responders at 5 mg/kg [2, 8]: 25% |
| O=C1NC(=O)C(c2ccccc2)(c2ccccc2)N1 [diphenylhydantoin] |  |  |  | responders at 50 mg/kg [2, 7]: 50% |
| Fc1ccc(C(c2ccc(F)cc2)N2CCN(C/C=C/c3ccccc3)CC2)cc1 [flunarizin, reference compound] |  | 22.8 |  | responders at 50 mg/kg [2, 7]: 100%; responders at 50 mg/kg (NMDA-induced death; [4]): 100% |
| COCCOC(=O)C1=C(C)NC(C)=C(C(=O)OC(C)C)C1c1cccc([N+](=O)[O-])c1 (stereo not shown) [nimodipin, reference compound] |  | 18.5 |  | ED50 [2, 6]: 25.4 mg/kg; responders at 20 mg/kg [2, 3]: 25%; responders at 20 mg/kg (NMDA-induced death; [4]): 87.5% |
| CCC1(c2ccccc2)C(=O)NC(=O)NC1=O [phenobarbital] |  |  |  | responders at 50 mg/kg [2, 8]: 62.5% |
| CCCC(CCC)C(=O)O [valproinic acid] |  |  |  | responders at 250 mg/kg [2, 8]: 87.5% |
| COc1ccc(CCN(C)CCCC(C#N)(c2ccc(OC)c(OC)c2)C(C)C)cc1OC (stereo not shown) [verapamil, reference compound] |  | 17.3 |  | responders at 50 mg/kg [2, 8]: 50%; responders at 20 mg/kg (NMDA-induced death; [4]): 87.5% |
